Holding throughout (format): cell-based
One assay concerns the target T1, CTL1 in glioma cell C6 (Rattus norvegicus, UniProt Q8VII6, K645E/R267S).
T1 construct: expressed in transfected cells; host or cells: glioma C6 cells, transient transfection, vector pcDNA3
T1 sequence (Q8VII6 1-653 isoform Q8VII6-2 R267S/K645E): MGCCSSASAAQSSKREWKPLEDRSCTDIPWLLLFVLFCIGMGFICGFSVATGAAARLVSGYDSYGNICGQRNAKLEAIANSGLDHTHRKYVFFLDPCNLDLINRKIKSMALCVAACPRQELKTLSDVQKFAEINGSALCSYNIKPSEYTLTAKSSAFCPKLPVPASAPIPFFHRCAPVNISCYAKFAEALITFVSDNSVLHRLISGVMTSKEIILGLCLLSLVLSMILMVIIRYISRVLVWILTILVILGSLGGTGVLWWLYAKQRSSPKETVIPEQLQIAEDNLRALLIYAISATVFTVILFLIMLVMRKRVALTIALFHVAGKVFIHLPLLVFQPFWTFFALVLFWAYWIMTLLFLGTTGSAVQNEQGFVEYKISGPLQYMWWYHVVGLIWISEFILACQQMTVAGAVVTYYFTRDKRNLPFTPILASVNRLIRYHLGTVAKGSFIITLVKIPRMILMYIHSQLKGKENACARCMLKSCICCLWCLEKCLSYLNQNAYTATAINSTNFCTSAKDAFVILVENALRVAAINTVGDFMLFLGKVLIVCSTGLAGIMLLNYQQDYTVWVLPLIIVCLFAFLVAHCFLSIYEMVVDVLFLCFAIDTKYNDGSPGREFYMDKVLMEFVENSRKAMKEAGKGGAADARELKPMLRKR
Nature of the assay: total absorption of choline by glioma C6 cells transiently transfected with CTL1pcDNA3. Conditions: hemicholinium-3; 48 hours after transfection; only C6-CTL1pcDNA3 cells, not empty-plasmid cells. The source says:
FIGS. 8A-8C: Transient transfection of glioma cell C6 with the vector CTL1pcDNA3 described in FIG. 6.

A further assay deals with N18 cells. Nature of the assay: capture of tritiated choline by N18 cells transiently transfected with rCTL1a/pcDNA3, rCTL1b/pcDNA3 or pcDNA3. To be noted: 10 μM of the substance; 24 hours after transfection; same in all three transfections (rCTL1a, rCTL1b, empty pcDNA3); result not shown.
The target in assay [1] is T2, mutant yeast transformed by 4.17 (truncated tCTL1) (Torpedo marmorata, UniProt Q9I9B9, G501V).
T2 construct: the suppressor, 4.17, whose first ATG corresponds to M471 of tCTLI; expressed in transfected cells; host or cells: Saccharomyces cerevisiae ctr ise URA3 mutant strain, plasmid pFL61
T2 sequence (Q9I9B9 471-646 G501V): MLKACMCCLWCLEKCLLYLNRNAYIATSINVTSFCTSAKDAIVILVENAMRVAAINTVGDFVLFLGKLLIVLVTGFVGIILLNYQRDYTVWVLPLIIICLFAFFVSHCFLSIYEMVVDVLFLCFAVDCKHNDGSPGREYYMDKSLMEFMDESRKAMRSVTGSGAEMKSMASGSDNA
Nature of the assay: saturable [3H]choline absorption by mutant yeast transformed with clone 4.17. Conditions: 1 μM HC-3, 30° C., 30 minutes. How it is done: The transformed yeast was incubated at 30° C. for 30 minutes with 25 nM [3H]-choline.
The plasmids were isolated from colonies having a strong choline-dependent growth phenotype, and they were used to transform aliquot fractions of mutant yeast in order to eliminate the ctr reverse mutants and the yeast suppressor mutations.
The culture density was normalized by measuring the OD600.

For `C[N+]1(C)CCOC(O)(c2ccc(-c3ccc(C4(O)C[N+](C)(C)CCO4)cc3)cc2)C1.[Br-].[Br-]` (stereo not drawn) [HC-3, hemicholinium-3], the “inhibition of total absorption of choline” value against CTL1 in glioma cell C6 is reported as “inhibition”. The “inhibition of capture of tritiated choline” value in the assay on N18 cells is recorded as “about 50%”. Besides, the “saturable [3H]choline absorption by the yeast transformed in 4.17” value in assay [1] was “inhibited”.

Source of the values: US7303895B1 (priority 1999, dated 2007).
